Experimental data published in patent US9879036B2, “Mitochondrial aldehyde dehydrogenase-2 binding compounds and methods of use thereof” (Aviv Therapeutics, Inc., priority 2014, dated 2018).

Columns and labels:
ALDH2 [1] = target: T1, ALDH2 (Homo sapiens, UniProt P05091); assay: ALDH2 activity with 20 μM of the compound (Table 3); assay type: biochemical; conditions: 20 μM compound
T1 construct: His-tag (N); made in house; host or cells: E. coli BL21
T1 sequence (P05091 18-517): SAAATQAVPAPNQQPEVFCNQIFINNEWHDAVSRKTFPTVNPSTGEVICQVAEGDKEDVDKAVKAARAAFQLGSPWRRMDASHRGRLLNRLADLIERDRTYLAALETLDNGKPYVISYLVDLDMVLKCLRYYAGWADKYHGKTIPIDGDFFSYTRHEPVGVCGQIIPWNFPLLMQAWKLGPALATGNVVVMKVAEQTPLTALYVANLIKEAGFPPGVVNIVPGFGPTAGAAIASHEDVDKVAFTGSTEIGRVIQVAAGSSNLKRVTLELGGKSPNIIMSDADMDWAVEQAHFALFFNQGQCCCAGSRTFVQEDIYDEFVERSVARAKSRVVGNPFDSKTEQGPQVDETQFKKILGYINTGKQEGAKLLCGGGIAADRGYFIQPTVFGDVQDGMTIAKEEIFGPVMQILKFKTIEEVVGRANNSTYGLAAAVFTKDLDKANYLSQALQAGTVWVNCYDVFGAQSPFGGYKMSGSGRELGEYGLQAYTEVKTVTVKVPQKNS
Summary of the method: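 Compound was tested at 20 μM. ALDH2 oxidation of acetaldehyde with NAD+ cofactor was followed spectrophotometrically as NADH accumulation at 340 nm. Activity is expressed relative to the enzyme's baseline activity, taken as 100%.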

PAD wild type mice = assay: Limb ischemia model for peripheral arterial disease (PAD); assay type: in vivo; conditions: osmotic pump for 28 days
Method: Mice are anesthetized and hair is entirely removed from the surgical area. A longitudinal incision is inguinal crease along the femoral vessels and the connective tissue sheet between the femoral artery and vein is carefully dissected. An opening between the femoral artery and vein is made and the femoral artery is occluded using triple surgical knots. The incision is then closed.
The animals under permanent femoral artery occlusion are treated with compounds of formula (I) and the effects of the compounds on functional capacity is assessed in mice using treadmill exercise in a metabolic chamber.
The limb ischemia-murine animal model was utilized as a surrogated model for peripheral arterial disease as described in Nature Protocols, 4, 1737-1748 (2009). (Limbourg, A., et. als., Evaluation of postnatal arteriogenesis and angiogenesis in a mouse model of hind-limb ischemia, Nature Protocols, 4, 1737-1748 (2009)). All experiments were run according to national and institutional regulations concerning the use of animals for research purposes and permissions to carry out experiments have to be obtained.
(§1) The animals, WT mice age 18-22 weeks, were anesthetized with an intraperitoneal (IP) injection of esketamine (100 mg/ml) dose 80-100 mg/kg and xylazine (20 mg/ml) dose 4-6 mg/kg. Hair was entirely removed from the surgical area and a longitudinal incision was made beginning at the inguinal crease along the femoral vessels. The connective tissue sheet between the femoral artery and vein was then carefully dissected and an opening between the femoral artery and vein was made. Artery ligation thread was then used to occlude the femoral artery using triple surgical knots. The incision was then closed and the animals were administered a single dose of buprenorphine (0.1 mg/kg) subcutaneously to control ischemic pain.
(§2) The animals under permanent femoral artery occlusion at day zero, were treated with ALDH2 activators, Alda-1 and AC112, via osmotic pump for 28 days. The effects of the compounds of the present invention on functional capacity were assessed in mice using treadmill exercise in a metabolic chamber.

ALDH2 [2] = target: T2, ALDH2 (Mus musculus, UniProt P47738); assay: ALDH2 activity of muscle tissue in PAD mice; assay type: in vivo; conditions: osmotic pump for 28 days
T2 construct: In this study we have also determined the ALDH2 activity in muscle tissue; from tissue; host or cells: skeletal muscle of WT mice with femoral artery occlusion
T2 sequence (P47738 20-519): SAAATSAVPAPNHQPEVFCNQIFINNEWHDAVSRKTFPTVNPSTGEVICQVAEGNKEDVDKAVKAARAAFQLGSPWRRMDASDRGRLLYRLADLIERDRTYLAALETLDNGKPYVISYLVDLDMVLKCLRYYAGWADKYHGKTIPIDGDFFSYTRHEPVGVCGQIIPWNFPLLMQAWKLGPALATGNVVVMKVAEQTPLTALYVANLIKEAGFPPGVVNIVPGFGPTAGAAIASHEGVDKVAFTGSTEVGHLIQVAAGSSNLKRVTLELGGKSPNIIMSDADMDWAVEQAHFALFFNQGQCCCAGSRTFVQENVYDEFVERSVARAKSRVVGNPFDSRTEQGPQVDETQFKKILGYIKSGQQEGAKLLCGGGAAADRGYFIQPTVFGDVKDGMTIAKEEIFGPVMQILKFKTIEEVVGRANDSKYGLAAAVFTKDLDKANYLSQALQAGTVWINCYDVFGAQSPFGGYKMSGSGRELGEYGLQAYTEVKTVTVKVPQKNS
Method: as §1, §2
In this study we have also determined the ALDH2 activity in muscle tissue.

- activity at 20 µM (ALDH2 [1]): > 250%
Structure (SMILES): COc1ccc(CNC(=O)c2cc(-c3ncccc3CO)ccc2OCC(C)C)cc1F [AC112]
- pain threshold (PAD wild type mice): improve pain threshold
- skeletal muscle resistance to fatigue (contractility measured ex vivo) (PAD wild type mice): improve the skeletal muscle resistance to fatigue
- PAD-induced skeletal muscle atrophy (PAD wild type mice; WT mice): minimizes PAD-induced skeletal muscle atrophy
- running distance (PAD wild type mice; treadmill): improve
- running time (PAD wild type mice; treadmill): improve
- ALDH2 activity of muscle tissue (ALDH2 [2]): increased the ALDH2 activity of muscle tissue
